Data from US4812409A, “Hydrolyzable fluorescent substrates and analytical determinations using same” (Eastman Kodak Company, priority 1986, dated 1989).

Assays:
Assay type in all cases: biochemical
carboxylesterase, Type I = assay: Determination of hydrolytic enzymes: carboxylesterase Type I; conditions: pH 7.8, 25° C., ex 540 nm, em 595 nm
Experimental: (§1) Test solutions were prepared with the following: 50 μl of substrate (1 mg/μl methanol), […] of 0.05 molar potassium phosphate buffer at the indicated pH (near the optimum for each enzyme) and 10 μl of enzyme. Enzymes to be determined included carboxylesterase, Type I (pH 7.8) and Type II (pH 6.0), aminoacylase, Grade I (pH 7.0), and trypsin, Type I and III (pH 7.8). Sample preparations and testing were done in an area protected from light. The enzyme solutions were kept at 0° C. prior to use, and assays were run at 25° C. with fluorescence measured at an excitation of 540 nm and an emission of 595 nm.

trypsin, Type III = target: T1, trypsin, Type III (Bos taurus, UniProt P00760); assay: Determination of hydrolytic enzymes: trypsin Type III; conditions: pH 7.8, 25° C., ex 540 nm, em 595 nm
T1 sequence (P00760 24-246): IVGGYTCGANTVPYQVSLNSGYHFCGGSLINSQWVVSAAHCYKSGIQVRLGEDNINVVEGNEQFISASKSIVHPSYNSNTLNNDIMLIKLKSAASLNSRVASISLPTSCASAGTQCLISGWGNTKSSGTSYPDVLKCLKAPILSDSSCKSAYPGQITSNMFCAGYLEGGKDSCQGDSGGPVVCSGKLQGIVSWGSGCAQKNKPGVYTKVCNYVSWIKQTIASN
Experimental: as §1

trypsin, Type I = target: T2, trypsin, Type I (Bos taurus, UniProt P00760); assay: Determination of hydrolytic enzymes: trypsin Type I; conditions: pH 7.8, 25° C., ex 540 nm, em 595 nm
T2 sequence (P00760 24-246): T1 sequence (P00760 24-246)
Experimental: as §1

aminoacylase, Grade I = target: T3, aminoacylase, Grade I (Sus scrofa, UniProt P37111); assay: Determination of hydrolytic enzymes: aminoacylase Grade I; conditions: Final Enzyme Activity 3,000 I.U., pH 7.0, 25° C., ex 540 nm, em 595 nm
T3 sequence (P37111 2-407 limits assumed): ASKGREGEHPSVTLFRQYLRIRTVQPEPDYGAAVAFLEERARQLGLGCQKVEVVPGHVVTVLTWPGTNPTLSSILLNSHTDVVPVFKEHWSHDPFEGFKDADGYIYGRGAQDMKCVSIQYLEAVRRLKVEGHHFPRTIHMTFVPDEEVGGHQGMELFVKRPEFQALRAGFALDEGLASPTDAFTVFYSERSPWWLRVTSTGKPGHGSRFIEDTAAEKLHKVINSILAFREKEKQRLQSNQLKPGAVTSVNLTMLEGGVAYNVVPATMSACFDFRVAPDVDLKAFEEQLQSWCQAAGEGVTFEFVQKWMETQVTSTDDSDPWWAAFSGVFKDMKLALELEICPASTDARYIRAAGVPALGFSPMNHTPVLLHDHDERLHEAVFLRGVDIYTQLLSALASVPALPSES
Experimental: as §1

[1] = system: carboxylesterase, Type II; assay: Determination of hydrolytic enzymes: carboxylesterase Type II; conditions: Final Enzyme Activity 15 I.U., pH 6.0, 25° C., ex 540 nm, em 595 nm
Experimental: as §1

CC(=O)Nc1ccc2c3c(cccc13)C(=O)C=C2 [Example 5]
Relative Fluorescence (minus control with no enzyme) (carboxylesterase, Type I; Final Enzyme Activity 9.6 I.U., 0 Min): 2.7 | Relative Fluorescence (minus control with no enzyme) (carboxylesterase, Type I; Final Enzyme Activity 9.6 I.U., 10 Min): 3.6 | Relative Fluorescence (minus control with no enzyme) (carboxylesterase, Type I; Final Enzyme Activity 9.6 I.U., 15 Min): 4.1 | Relative Fluorescence (minus control with no enzyme) (carboxylesterase, Type I; Final Enzyme Activity 9.6 I.U., 30 Min): 4.4 | Relative Fluorescence (minus control with no enzyme) (carboxylesterase, Type I; Final Enzyme Activity 96 I.U., 0 Min): 3.0 | Relative Fluorescence (minus control with no enzyme) (carboxylesterase, Type I; Final Enzyme Activity 96 I.U., 10 Min): 6.1 | Relative Fluorescence (minus control with no enzyme) (carboxylesterase, Type I; Final Enzyme Activity 96 I.U., 15 Min): 7.9 | Relative Fluorescence (minus control with no enzyme) (carboxylesterase, Type I; Final Enzyme Activity 96 I.U., 30 Min): 12.5 | Relative Fluorescence (minus control with no enzyme) (trypsin, Type III; Final Enzyme Activity 6,000 I.U., 0 Min): 2.7 | Relative Fluorescence (minus control with no enzyme) (trypsin, Type III; Final Enzyme Activity 6,000 I.U., 10 Min): 2.8 | Relative Fluorescence (minus control with no enzyme) (trypsin, Type III; Final Enzyme Activity 6,000 I.U., 15 Min): 3.0 | Relative Fluorescence (minus control with no enzyme) (trypsin, Type III; Final Enzyme Activity 6,000 I.U., 30 Min): 3.6 | Relative Fluorescence (minus control with no enzyme) (trypsin, Type III; Final Enzyme Activity 60,000 I.U., 0 Min): 2.2 | Relative Fluorescence (minus control with no enzyme) (trypsin, Type III; Final Enzyme Activity 60,000 I.U., 10 Min): 3.5 | Relative Fluorescence (minus control with no enzyme) (trypsin, Type III; Final Enzyme Activity 60,000 I.U., 15 Min): 3.4 | Relative Fluorescence (minus control with no enzyme) (trypsin, Type III; Final Enzyme Activity 60,000 I.U., 30 Min): 4.3 | Relative Fluorescence (minus control with no enzyme) (trypsin, Type I; Final Enzyme Activity 5,000 I.U., 0 Min): 0 | Relative Fluorescence (minus control with no enzyme) (trypsin, Type I; Final Enzyme Activity 5,000 I.U., 10 Min): 0.5 | Relative Fluorescence (minus control with no enzyme) (trypsin, Type I; Final Enzyme Activity 5,000 I.U., 15 Min): 0.6 | Relative Fluorescence (minus control with no enzyme) (trypsin, Type I; Final Enzyme Activity 5,000 I.U., 30 Min): 0.8 | Relative Fluorescence (minus control with no enzyme) (trypsin, Type I; Final Enzyme Activity 50,000 I.U., 0 Min): 0 | Relative Fluorescence (minus control with no enzyme) (trypsin, Type I; Final Enzyme Activity 50,000 I.U., 10 Min): 0.7 | Relative Fluorescence (minus control with no enzyme) (trypsin, Type I; Final Enzyme Activity 50,000 I.U., 15 Min): 0.9 | Relative Fluorescence (minus control with no enzyme) (trypsin, Type I; Final Enzyme Activity 50,000 I.U., 30 Min): 1.5 | Relative Fluorescence (minus control with no enzyme) (aminoacylase, Grade I; 0 Min): 1.5 | Relative Fluorescence (minus control with no enzyme) (aminoacylase, Grade I; 10 Min): 2.0 | Relative Fluorescence (minus control with no enzyme) (aminoacylase, Grade I; 15 Min): 2.1 | Relative Fluorescence (minus control with no enzyme) (aminoacylase, Grade I; 30 Min): 2.3 | Relative Fluorescence (minus control with no enzyme) ([1]; 0 Min): 2.0 | Relative Fluorescence (minus control with no enzyme) ([1]; 10 Min): 5.4 | Relative Fluorescence (minus control with no enzyme) ([1]; 15 Min): 8.0 | Relative Fluorescence (minus control with no enzyme) ([1]; 30 Min): 15.8
